Laboratory results as given in US10144938B2, “Methods of processing aromatic compounds” (WISCONSIN ALUMNI RESEARCH FOUNDATION, priority 2015, dated 2018).

Key:
[1] = tested on: bacterial or yeast ethanologens; conditions: literature reports; cited from earlier work
R. sphaeroides 2.4.1 = assay: Glucose and xylose consumption in synthetic hydrolysate with individual aromatics added; assay type: cell-based, Rhodobacter sphaeroides; conditions: individual aromatics at concentrations present in SynH2, diluted to 20% strength, FIG. 9
From the text: For comparison, glucose and xylose utilization in 20% SynH2^− (no aromatics), as well as in 20% ACSH and 20% AHPCSH are also included.

SMILES: O=C(O)c1ccccc1 [Benzoate]
- Inhibitory to bacterial or yeast ethanologens [1]: inhibitory

SMILES: O=Cc1ccc(O)cc1 [4-Hydroxybenzaldehyde]
- Effect on glucose utilization (R. sphaeroides 2.4.1): inhibited glucose utilization
- Inhibitory to bacterial or yeast ethanologens [1]: inhibitory

SMILES: CC(=O)c1ccc(O)cc1 [4-Hydroxyacetophenone]
- Effect on glucose utilization (R. sphaeroides 2.4.1): inhibited glucose utilization
- Inhibitory to bacterial or yeast ethanologens [1]: inhibitory

SMILES: O=C(O)/C=C/c1ccc(O)cc1 [p-Coumaric acid]
- Effect on glucose utilization (R. sphaeroides 2.4.1): inhibited glucose utilization
- Inhibitory to bacterial or yeast ethanologens [1]: inhibitory

SMILES: COc1cc(C=O)ccc1O [Vanillin]
- Inhibitory to bacterial or yeast ethanologens [1]: inhibitory

SMILES: COc1cc(C(C)=O)ccc1O [Acetovanillone]
- Inhibitory to bacterial or yeast ethanologens [1]: inhibitory
